The text below walks through data of PubChem BioAssay (NCI).

Where “and” joins values, the source holds several entries; their conditions need not be identical. Equal entries are not always repeated.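 48-hour exposure; five concentrations; linearly interpolated endpoints. The concentration for 50% growth inhibition is given as GI50. TGI: concentration producing complete growth inhibition.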

Some test systems named below: XF 498 CNS; RXF-631 renal; M19-MEL melanoma; DLD-1 colon; SNB-78 CNS; LXFL 529 NSCLC; DMS 114 small cell lung; HOP-18 NSCLC; MDA-N; P388/ADR leukemia; P388 leukemia; SN12K1 renal.
What all share (assay): NCI tumour cell line growth inhibition, 48 h

In the case of `Cn1c(=O)c(NC(=O)C(Cl)(Cl)Cl)nc2ccccc21`, the TGI with XF 498 CNS, in the assay on RXF-631 renal, in the assay with M19-MEL melanoma, in the assay on DLD-1 colon, in the assay with SNB-78 CNS and in the assay with LXFL 529 NSCLC was greater than 100 µM in each case. For the same molecule, in the assay on DMS 114 small cell lung, the TGI is greater than 100 µM.
Regarding `COC(=O)C1=C(c2ccc(OC)c(OC)c2)OC(c2cc(OC)c(OC)c(OC)c2)C1` (configuration not stated), the TGI with XF 498 CNS is greater than 100 µM; in the assay on RXF-631 renal it was greater than 100 µM; with M19-MEL melanoma, greater than 100 µM; in the assay on DLD-1 colon, greater than 100 µM; in the assay with SNB-78 CNS, 68.5 µM; in the assay with LXFL 529 NSCLC it was greater than 100 µM. The TGI with HOP-18 NSCLC and in the assay on DMS 114 small cell lung was greater than 100 µM each time.
Consider `O=C(CCC(=O)Nc1ccc(Cl)c(Cl)c1)CC(=O)c1ccc(F)cc1`, for which the TGI in the assay on RXF-631 renal, in the assay with M19-MEL melanoma, with DLD-1 colon, in the assay with SNB-78 CNS, with LXFL 529 NSCLC and in the assay with HOP-18 NSCLC was greater than 100 µM in each case. The same molecule displayed a TGI in the assay on DMS 114 small cell lung greater than 100 µM.
In the assay on MDA-N, `NC1=NC(c2ccc(Cl)cc2)N(c2ccc(S(N)(=O)=O)cc2)C(N)=N1` (configuration not stated) gave a TGI greater than 100 µM.
In the case of `CN(C)c1nnnn1-c1c(N)n(C)c(=O)n(C)c1=O`, the TGI in the assay with XF 498 CNS, in the assay with RXF-631 renal, in the assay on M19-MEL melanoma, in the assay on DLD-1 colon, in the assay on SNB-78 CNS and in the assay with LXFL 529 NSCLC was greater than 100 µM in each case. For the same molecule, the TGI with HOP-18 NSCLC and with DMS 114 small cell lung was greater than 100 µM each time.
Consider `CCCCCCCCCCCCCCCCNCCCN(C)CCCN`, for which the TGI in the assay with M19-MEL melanoma was 41.3 µM; with DLD-1 colon, 36 µM; with SNB-78 CNS it was 34.4 µM; with LXFL 529 NSCLC it was 33.2 µM; in the assay on DMS 114 small cell lung, 35.1 µM.
With `COc1cc(NS(C)(=O)=O)ccc1Nc1c2ccccc2nc2ccccc12`, the GI50 was 0.388 µM and 0.431 µM in the assay on RXF-631 renal; 1.54 µM and 5.95 µM with M19-MEL melanoma; 3.58 µM and 15.3 µM with DLD-1 colon; 5.79 µM and 10.6 µM in the assay with SNB-78 CNS; 4 µM with MDA-N; 5.37 µM and 5.42 µM in the assay with LXFL 529 NSCLC. Further, the GI50 in the assay with HOP-18 NSCLC is 0.878 µM; in the assay with DMS 114 small cell lung it was 0.114 µM and 0.0981 µM. Moreover, the TGI in the assay on RXF-631 renal was 4.3 µM and 2.93 µM and 5.34 µM; with P388/ADR leukemia, 5.51 µM; with M19-MEL melanoma, 17.6 µM and 30.8 µM and 8.44 µM; with DLD-1 colon, 16.2 µM and 35.1 µM and 7.54 µM; in the assay on SNB-78 CNS, 17.7 µM and 36.5 µM and 14.4 µM; with P388 leukemia, 0.391 µM. Also, the TGI in the assay with MDA-N is 7.41 µM and 16.6 µM and 11.5 µM; with LXFL 529 NSCLC, 17.9 µM and 22.7 µM and 8.92 µM; in the assay on HOP-18 NSCLC, 5.23 µM and 3.51 µM; in the assay on DMS 114 small cell lung, 6.54 µM and 1.52 µM and 4.56 µM; with SN12K1 renal, 4.04 µM.
Take `CCOc1ccc2c(c1)[n+]([O-])c(-c1ccc(Br)cc1)c(N)[n+]2[O-]`: the TGI with XF 498 CNS, in the assay on RXF-631 renal, with M19-MEL melanoma, in the assay on DLD-1 colon, with SNB-78 CNS and in the assay with LXFL 529 NSCLC was greater than 100 µM throughout. The TGI in the assay with HOP-18 NSCLC and in the assay on DMS 114 small cell lung was greater than 100 µM each time.
Consider `CN(C)c1ccc(/C=C/c2ccc(/C=C/c3ccc(N(C)C)cc3)cc2)cc1`, for which the TGI in the assay on RXF-631 renal, in the assay on M19-MEL melanoma, in the assay on DLD-1 colon, with SNB-78 CNS, in the assay with LXFL 529 NSCLC and in the assay with HOP-18 NSCLC was greater than 100 µM each time.
In the assay on MDA-N, `COC(=O)C1OC2(CCCC3CC32)O[C@H]1C(=O)OC` (some centres not stated) yielded a TGI greater than 100 µM.
`C[N+](C)(C)CC1CCC/C1=N/O` (configuration not stated): the TGI in the assay with XF 498 CNS is 3.1 µM; in the assay on M19-MEL melanoma, greater than 100 µM; in the assay with DLD-1 colon, greater than 100 µM; in the assay on SNB-78 CNS, greater than 100 µM; with LXFL 529 NSCLC, greater than 100 µM; with HOP-18 NSCLC, greater than 100 µM. The same molecule had a TGI with DMS 114 small cell lung of 39 µM.
In the case of `Cc1cn(C2C=CC(CO)O2)c(=O)[nH]c1=O` (configuration not stated), in the assay with MDA-N, the TGI was greater than 1000 µM.
For `Cc1nnc2c3nnc(C)n3c3ccccc3n12`, the TGI in the assay with XF 498 CNS, with DLD-1 colon, in the assay with SNB-78 CNS, in the assay on LXFL 529 NSCLC and with DMS 114 small cell lung was greater than 100 µM in each case.
As to `N#CC1CCCCOCCOCCOCCOCCOCCCCCC1=O` (configuration not stated), the TGI in the assay with RXF-631 renal, in the assay with M19-MEL melanoma, in the assay on DLD-1 colon, in the assay with SNB-78 CNS, in the assay on LXFL 529 NSCLC and in the assay with HOP-18 NSCLC was greater than 100 µM each time. For the same molecule, in the assay on DMS 114 small cell lung, the TGI was greater than 100 µM.
`O=C(/C=C/c1ccco1)c1ccc(NCc2nc3ccccc3[nH]2)cc1`: the TGI with M19-MEL melanoma was found to be 29.4 µM; in the assay on DLD-1 colon, 32.4 µM; in the assay with SNB-78 CNS, 58.4 µM; with LXFL 529 NSCLC, 28.5 µM; in the assay with HOP-18 NSCLC, 44.5 µM; with DMS 114 small cell lung, 26 µM.
Regarding `S=c1nc(COc2ccc(Cl)cc2Cl)[nH][nH]1`, the TGI in the assay with XF 498 CNS, in the assay on M19-MEL melanoma, in the assay with DLD-1 colon, in the assay with SNB-78 CNS, in the assay with LXFL 529 NSCLC and with DMS 114 small cell lung was greater than 100 µM throughout.
Regarding `CS(=O)(=O)NNS(=O)(=O)c1ccccc1`, the TGI in the assay with XF 498 CNS, in the assay with M19-MEL melanoma, in the assay with DLD-1 colon, in the assay with LXFL 529 NSCLC and in the assay with DMS 114 small cell lung was greater than 100 µM each time.
Consider `CC(=O)NC1C(OCc2ccccc2)OC(CO)C(O)C1OC(C)C(=O)N[C@@H](C)C(=O)N[C@H](CCC(=O)OCCNc1c2ccccc2nc2cccc([N+](=O)[O-])c12)C(N)=O` (some centres not stated), for which the TGI in the assay on DLD-1 colon was 0.0128 µM; in the assay on SNB-78 CNS, 0.0809 µM; in the assay with LXFL 529 NSCLC, 0.00267 µM; with HOP-18 NSCLC it was 0.00289 µM and 0.00803 µM; in the assay with DMS 114 small cell lung, 0.00839 µM.
